Values quoted from earlier work in US6673908B1, “Tumor necrosis factor receptor 2” (Nuvelo, Inc., priority 1999, dated 2004).
Structures can show the parent of a compound that is named as a salt. Where two headings read alike, the source gives them in different places.

What was measured:
[1] = system: advanced colorectal cancer
5-lipoxygenase (5-LO) = target: T1, 5-lipoxygenase (5-LO) (Homo sapiens, UniProt P09917); details: for FEV1, % change from baseline: high dose
T1 construct: host or cells: asthma patients (in vivo, endogenous enzyme)
T1 sequence (P09917 1-674): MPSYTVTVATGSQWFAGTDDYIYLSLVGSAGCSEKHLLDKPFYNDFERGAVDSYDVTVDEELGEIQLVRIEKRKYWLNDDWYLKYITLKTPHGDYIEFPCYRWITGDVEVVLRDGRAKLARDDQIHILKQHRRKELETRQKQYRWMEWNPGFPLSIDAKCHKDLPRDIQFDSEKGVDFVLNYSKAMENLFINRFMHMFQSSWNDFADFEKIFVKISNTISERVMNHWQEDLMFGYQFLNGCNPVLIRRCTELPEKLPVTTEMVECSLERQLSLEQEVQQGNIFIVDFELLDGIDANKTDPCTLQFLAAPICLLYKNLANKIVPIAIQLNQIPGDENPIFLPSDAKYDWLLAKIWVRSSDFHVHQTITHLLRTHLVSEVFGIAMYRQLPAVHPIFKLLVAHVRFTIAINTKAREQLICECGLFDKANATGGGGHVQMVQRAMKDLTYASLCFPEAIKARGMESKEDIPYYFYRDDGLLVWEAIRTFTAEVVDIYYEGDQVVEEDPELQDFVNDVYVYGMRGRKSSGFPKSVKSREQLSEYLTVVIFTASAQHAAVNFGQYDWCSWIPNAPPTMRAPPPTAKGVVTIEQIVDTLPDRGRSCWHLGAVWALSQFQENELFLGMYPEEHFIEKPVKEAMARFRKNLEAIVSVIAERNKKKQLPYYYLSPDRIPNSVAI

CD3 lymphocytes = details: in vivo

O=c1[nH]cc(F)c(=O)[nH]1 [5-fluorouracil]
patients with a complete response (complete tumor disappearance) [1]: 1-5% | patients with an objective response [1]: 20-40%

C[C@H](C#Cc1ccc(Cc2ccc(F)cc2)s1)N(O)C(N)=O [ABT-761]
FEV1, % change from baseline (5-lipoxygenase (5-LO); Mutant, Day 8): 1.8% | FEV1, % change from baseline (5-lipoxygenase (5-LO); Mutant, Day 84): 5% | FEV1, % change from baseline (5-lipoxygenase (5-LO); Wild type, Day 8): 8.2% | FEV1, % change from baseline (5-lipoxygenase (5-LO); Wild type, Day 84): 18.5% | improvement of forced expiratory volume (5-lipoxygenase (5-LO); heterozygous patients, high-dose active treatment, within one week): 23.3±6.0% | improvement of forced expiratory volume (5-lipoxygenase (5-LO); patients with mutant genotype, active 5-LO inhibitor treatment): −1.2±2.9% | improvement of forced expiratory volume (5-lipoxygenase (5-LO); wild-type patients, high-dose active treatment): 18.8±3.6%

Nc1c2c(nc3ccccc13)CCCC2 [Cognex, tacrine hydrochloride]
patients showing no change or minimal worsening of their disease (Alzheimer's disease patients): about 45% | patients minimally improved (Alzheimer's patients): About 58% | patients much improved (Alzheimer's patients): about 2%

COc1ccc(CC(C)NCC(O)c2ccc(O)c(NC=O)c2)cc1 (stereo not shown) [Formoterol]
Degree of Brochodilator Desensitisation after Formoterol Therapy: 6 Hour FEF25-75 (β2-adrenergic receptor; Arg 16 (n = 4)): 23% | Degree of Brochodilator Desensitisation after Formoterol Therapy: 6 hour FEV1 (β2-adrenergic receptor; Arg 16 (n = 4)): 28% | Degree of Brochodilator Desensitisation after Formoterol Therapy: Maximal FEF25-75 (β2-adrenergic receptor; Arg 16 (n = 4)): −35% | Degree of Brochodilator Desensitisation after Formoterol Therapy: Maximal FEV1 (β2-adrenergic receptor; Arg 16 (n = 4)): −8% | mean FEV1 desensitisation (β2-adrenergic receptor; Arg16 homozygotes): 28% | Degree of Brochodilator Desensitisation after Formoterol Therapy: 6 Hour FEF25-75 (β2-adrenergic receptor; Gln27 (n = 5)): 38% | Degree of Brochodilator Desensitisation after Formoterol Therapy: 6 hour FEV1 (β2-adrenergic receptor; Gln27 (n = 5)): 47% | Degree of Brochodilator Desensitisation after Formoterol Therapy: Maximal FEF25-75 (β2-adrenergic receptor; Gln27 (n = 5)): −15% | Degree of Brochodilator Desensitisation after Formoterol Therapy: Maximal FEV1 (β2-adrenergic receptor; Gln27 (n = 5)): 3% | Degree of Brochodilator Desensitisation after Formoterol Therapy: 6 Hour FEF25-75 (β2-adrenergic receptor; Glu/Gln27 (n = 11)): 70% | Degree of Brochodilator Desensitisation after Formoterol Therapy: 6 hour FEV1 (β2-adrenergic receptor; Glu/Gln27 (n = 11)): 65% | Degree of Brochodilator Desensitisation after Formoterol Therapy: Maximal FEF25-75 (β2-adrenergic receptor; Glu/Gln27 (n = 11)): 45% | Degree of Brochodilator Desensitisation after Formoterol Therapy: Maximal FEV1 (β2-adrenergic receptor; Glu/Gln27 (n = 11)): 52% | Degree of Brochodilator Desensitisation after Formoterol Therapy: 6 Hour FEF25-75 (β2-adrenergic receptor; Gly 16 (n = 10)): 103% | Degree of Brochodilator Desensitisation after Formoterol Therapy: 6 hour FEV1 (β2-adrenergic receptor; Gly 16 (n = 10)): 80% | Degree of Brochodilator Desensitisation after Formoterol Therapy: Maximal FEF25-75 (β2-adrenergic receptor; Gly 16 (n = 10)): 73% | Degree of Brochodilator Desensitisation after Formoterol Therapy: Maximal FEV1 (β2-adrenergic receptor; Gly 16 (n = 10)): 48% | mean FEV1 desensitisation (β2-adrenergic receptor; Gly16 homozygotes): 80% | Degree of Brochodilator Desensitisation after Formoterol Therapy: 6 Hour FEF25-75 (β2-adrenergic receptor; Gly/Arg 16 (n = 8)): 70% | Degree of Brochodilator Desensitisation after Formoterol Therapy: 6 hour FEV1 (β2-adrenergic receptor; Gly/Arg 16 (n = 8)): 57% | Degree of Brochodilator Desensitisation after Formoterol Therapy: Maximal FEF25-75 (β2-adrenergic receptor; Gly/Arg 16 (n = 8)): 50% | Degree of Brochodilator Desensitisation after Formoterol Therapy: Maximal FEV1 (β2-adrenergic receptor; Gly/Arg 16 (n = 8)): 48%

Monoclonal antibody: murine monoclonal antibody to deplete the circulating CD3 lymphocytes; reacts with the T3 recognition site of T-lymphocytes
sensitization rate (CD3 lymphocytes): 15-40% | treated patients producing human anti-mouse antibodies (HAMA) (CD3 lymphocytes): 80%

interferon alpha
patients in whom viral infection is completely and permanently eliminated (hepatitis C virus (HCV); hepatitis C virus infection): less than a quarter of patients | patients receiving virtually no benefit (hepatitis C virus (HCV); hepatitis C virus infection): Nearly half of patients | response rates (hepatitis C virus (HCV); patients with HCV genotype 1 (especially 1b)): under 10% | response rates (hepatitis C virus (HCV); patients with HCV genotype 2 or 3): greater than 40%
